One molecule from patent US11964941B2, “5-Bromo-indirubins” (City of Hope, priority 2014, dated 2024) can be followed below.

Usually IC50 stands for the concentration that gives 50% inhibition.

One experiment addresses FLT3 (D835Y) (Homo sapiens, UniProt P36888, D835Y). Kind of experiment: In vitro kinase assay, recombinant FLT3 (D835Y). The experiment is classed as biochemical. The settings on record: 33P-ATP, 120 min. The protocol: (§1) The kinase assays were performed with recombinant class III receptor tyrosine kinase family proteins. Briefly, proteins, freshly prepared substrates and ^33P-ATP (specific activity 0.01 μCi/μl final) were mixed in reaction buffer (20 mM HEPES pH 7.5, 10 mM MgCl2, 1 mM EGTA, 0.02% Brij35, 0.02 mg/ml BSA, 0.1 mM Na3VO4, 2 mM DTT) in the presence of DMSO as control or 5IN-1NH1s. The mixtures were reacted for 120 min at room temperature. Samples were transferred onto P81 ion exchange paper and filters were extensively washed with 0.75% phosphoric acid. The radioactivities were monitored. IC50 values were determined using GraphPad Prism software.
as §1, with “Kinase” for “The kinase”, “FLT3, mutated FLT3-ITD and D835I mutant FLT3 kinases.” for “class III receptor tyrosine kinase family proteins.”, “compound (1289).” for “5IN-1NH1s.”

Experiment [1] has as its system FLT3. The experiment in a line: In vitro kinase assay, recombinant FLT3. Format: biochemical. The settings on record: recombinant class III receptor tyrosine kinase family proteins. The protocol:
as §1
as §1, with “Kinase” for “The kinase”, “FLT3, mutated FLT3-ITD and D835I mutant FLT3 kinases.” for “class III receptor tyrosine kinase family proteins.”, “compound (1289).” for “5IN-1NH1s.”

Experiment [2] addresses FLT3 (Homo sapiens, UniProt P36888). Kind of experiment: In vitro kinase assay, recombinant FLT3. Format: biochemical. The settings on record: recombinant FLT3, 33P-ATP, 120 min. The protocol: as §1
as §1, with “Kinase” for “The kinase”, “FLT3, mutated FLT3-ITD and D835I mutant FLT3 kinases.” for “class III receptor tyrosine kinase family proteins.”, “compound (1289).” for “5IN-1NH1s.”

The target in another experiment is GSK3β (Homo sapiens, UniProt P49841). The experiment in a line: Kinase profiling in vitro, GSK3β. Format: biochemical. Particulars: recombinant GSK3β, 33P-ATP, 120 min. Here is the method:
as §1, with “recombinant” for “recombinant class III receptor tyrosine kinase family”

In the next experiment the target is AKT1 (Homo sapiens, UniProt P31749). Kind of experiment: Kinase profiling in vitro, AKT1. Particulars: recombinant AKT1, 33P-ATP, 120 min. Format: biochemical. The protocol: as §1, with “recombinant” for “recombinant class III receptor tyrosine kinase family”
The test system of experiment [3] is SKOV3 ovarian cancer cells. The experiment in a line: MTS cell viability, SKOV3 ovarian cancer cells. Format: cell-based, human. Particulars: 48 h, read-out: IC50 for 50% inhibition of viability. The protocol:
(§2) MTS assays were performed for cell viability. Human cancer cells were seeded in 96-well plates (2500 cells/well for solid tumors, 5000 cells/well for blood tumors), incubated overnight at 37 C in 5% CO2, and exposed to 5IN-1NH1 or 5IN-1NH1s in a dose-dependent manner for 48 h. See FIGS. 1A-1B, 2A-2B, 3, 4A-4B, and 6A-6B. Dimethyl sulfoxide (DMSO) was used as the vehicle control. Viable cell numbers were determined by tetrazolium conversion to its formazan dye and absorbance was measured at 490 nm using an automated ELISA plate reader. Each experiment was performed in quadruplicate. IC50 values were determined using CalcuSyn software (BIOSOFT®, Cambridge GB).

Experiment [4] relates to T315I ABL1 mutant KCL22 CML cells. The experiment in a line: MTS cell viability, T315I ABL1 mutant KCL22 CML cells. The experiment is classed as cell-based, human. Particulars: T315I ABL1 mutant KCL22 CML cells, MTS, 48 h; read-out: IC50 for 50% inhibition of viability. The protocol: as §2
Human DU145 prostate cancer, A2058 melanoma, SKOV3 ovarian cancer and T315I ABL1 mutant KCL22 CML cells were seeded in 96-well plates (2500 cells/well for solid tumors, 5000 cells/well for blood tumors), incubated overnight at 37° C. in 5% CO2, and exposed to 5IN-6NC1, 5IN-1NH1, 5IN-6NNC6, or 5IN-6NNC7 in a dose-dependent manner for 48 h. Dimethyl sulfoxide (DMSO) was used as the vehicle control. Viable cell numbers were determined by tetrazolium conversion to its formazan dye and absorbance was measured at 490 nm using an automated ELISA plate reader. Each experiment was performed in quadruplicate. IC50 values were determined using CalcuSyn software.

In a further experiment the target is Aurora A (Homo sapiens, UniProt O14965). The experiment in a line: Kinase profiling in vitro, Aurora A. Format: biochemical. Particulars: recombinant Aurora A, 33P-ATP, 120 min. The protocol:
as §1, with “recombinant” for “recombinant class III receptor tyrosine kinase family”

Another experiment deals with KDR/vEGFR2 (Homo sapiens, UniProt P35968). The experiment in a line: Kinase profiling in vitro, KDR/vEGFR2. The experiment is classed as biochemical. Particulars: recombinant KDR/vEGFR2, 33P-ATP, 120 min. Here is the method: as §1, with “recombinant” for “recombinant class III receptor tyrosine kinase family”
The target of a further experiment is JAK2 (Homo sapiens, UniProt O60674). Kind of experiment: Kinase profiling in vitro, JAK2. The experiment is classed as biochemical. The settings on record: recombinant JAK2, 33P-ATP, 120 min. Here is the method:
as §1, with “recombinant” for “recombinant class III receptor tyrosine kinase family”

Experiment [5] concerns DU145 prostate cancer cells. Kind of experiment: MTS cell viability, DU145 prostate cancer cells. The settings on record: 48 h, read-out: IC50 for 50% inhibition of viability. Format: cell-based, human. The protocol: as §2

Chain of AKT1 (P31749 whole entry, species assumed): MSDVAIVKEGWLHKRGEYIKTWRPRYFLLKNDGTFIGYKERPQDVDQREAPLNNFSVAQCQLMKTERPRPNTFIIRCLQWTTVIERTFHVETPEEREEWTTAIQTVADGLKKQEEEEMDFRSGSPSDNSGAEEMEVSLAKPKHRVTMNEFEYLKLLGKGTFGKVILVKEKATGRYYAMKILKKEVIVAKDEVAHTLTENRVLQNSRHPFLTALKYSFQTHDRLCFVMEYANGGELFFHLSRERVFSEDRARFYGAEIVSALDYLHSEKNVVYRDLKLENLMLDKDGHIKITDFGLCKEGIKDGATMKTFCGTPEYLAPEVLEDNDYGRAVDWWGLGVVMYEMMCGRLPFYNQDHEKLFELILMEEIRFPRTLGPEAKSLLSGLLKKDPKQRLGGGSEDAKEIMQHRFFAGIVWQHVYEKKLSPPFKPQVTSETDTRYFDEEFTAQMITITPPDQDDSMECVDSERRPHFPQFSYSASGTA
Chain of JAK2 (O60674 whole entry, species assumed): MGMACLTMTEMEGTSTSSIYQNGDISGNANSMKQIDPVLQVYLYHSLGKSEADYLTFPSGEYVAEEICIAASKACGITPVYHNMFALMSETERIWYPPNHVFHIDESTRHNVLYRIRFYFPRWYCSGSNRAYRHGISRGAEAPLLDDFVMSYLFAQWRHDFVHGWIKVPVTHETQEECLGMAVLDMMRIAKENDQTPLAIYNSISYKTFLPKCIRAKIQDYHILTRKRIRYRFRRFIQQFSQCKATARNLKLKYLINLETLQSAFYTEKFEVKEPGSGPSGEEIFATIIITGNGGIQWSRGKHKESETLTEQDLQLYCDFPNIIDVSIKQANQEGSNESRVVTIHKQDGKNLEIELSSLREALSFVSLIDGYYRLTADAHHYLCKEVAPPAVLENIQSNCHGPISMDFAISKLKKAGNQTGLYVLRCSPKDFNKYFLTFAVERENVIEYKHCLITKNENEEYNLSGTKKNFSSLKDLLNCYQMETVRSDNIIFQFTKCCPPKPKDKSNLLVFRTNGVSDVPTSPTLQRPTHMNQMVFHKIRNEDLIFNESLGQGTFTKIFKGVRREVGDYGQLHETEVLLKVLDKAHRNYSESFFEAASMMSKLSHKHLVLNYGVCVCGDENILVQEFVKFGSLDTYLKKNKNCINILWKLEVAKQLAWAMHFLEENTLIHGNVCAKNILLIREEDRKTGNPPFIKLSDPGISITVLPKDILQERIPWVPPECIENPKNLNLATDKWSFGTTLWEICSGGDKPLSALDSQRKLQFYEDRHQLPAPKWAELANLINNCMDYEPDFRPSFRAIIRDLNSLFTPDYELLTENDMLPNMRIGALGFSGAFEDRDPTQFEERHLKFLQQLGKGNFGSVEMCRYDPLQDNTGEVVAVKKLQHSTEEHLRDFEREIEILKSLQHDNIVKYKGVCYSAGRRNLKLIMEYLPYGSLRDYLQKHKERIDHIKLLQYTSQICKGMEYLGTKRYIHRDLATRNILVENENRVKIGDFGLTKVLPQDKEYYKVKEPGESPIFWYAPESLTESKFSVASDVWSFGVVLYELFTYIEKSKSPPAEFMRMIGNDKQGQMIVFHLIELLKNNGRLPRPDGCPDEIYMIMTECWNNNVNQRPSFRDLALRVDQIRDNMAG
Chain of GSK3β (P49841 whole entry, species assumed): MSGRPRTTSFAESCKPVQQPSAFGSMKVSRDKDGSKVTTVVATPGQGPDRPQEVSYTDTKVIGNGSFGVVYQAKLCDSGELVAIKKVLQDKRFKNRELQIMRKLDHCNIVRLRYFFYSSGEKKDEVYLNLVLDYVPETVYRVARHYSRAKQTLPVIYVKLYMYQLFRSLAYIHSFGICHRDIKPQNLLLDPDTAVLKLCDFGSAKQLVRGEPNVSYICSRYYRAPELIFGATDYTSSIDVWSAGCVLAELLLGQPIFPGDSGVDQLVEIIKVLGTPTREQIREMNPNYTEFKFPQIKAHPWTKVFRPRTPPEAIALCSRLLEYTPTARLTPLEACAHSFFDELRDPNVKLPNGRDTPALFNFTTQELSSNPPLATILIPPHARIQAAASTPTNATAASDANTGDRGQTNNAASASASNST
Chain of KDR/vEGFR2 (P35968 20-1356): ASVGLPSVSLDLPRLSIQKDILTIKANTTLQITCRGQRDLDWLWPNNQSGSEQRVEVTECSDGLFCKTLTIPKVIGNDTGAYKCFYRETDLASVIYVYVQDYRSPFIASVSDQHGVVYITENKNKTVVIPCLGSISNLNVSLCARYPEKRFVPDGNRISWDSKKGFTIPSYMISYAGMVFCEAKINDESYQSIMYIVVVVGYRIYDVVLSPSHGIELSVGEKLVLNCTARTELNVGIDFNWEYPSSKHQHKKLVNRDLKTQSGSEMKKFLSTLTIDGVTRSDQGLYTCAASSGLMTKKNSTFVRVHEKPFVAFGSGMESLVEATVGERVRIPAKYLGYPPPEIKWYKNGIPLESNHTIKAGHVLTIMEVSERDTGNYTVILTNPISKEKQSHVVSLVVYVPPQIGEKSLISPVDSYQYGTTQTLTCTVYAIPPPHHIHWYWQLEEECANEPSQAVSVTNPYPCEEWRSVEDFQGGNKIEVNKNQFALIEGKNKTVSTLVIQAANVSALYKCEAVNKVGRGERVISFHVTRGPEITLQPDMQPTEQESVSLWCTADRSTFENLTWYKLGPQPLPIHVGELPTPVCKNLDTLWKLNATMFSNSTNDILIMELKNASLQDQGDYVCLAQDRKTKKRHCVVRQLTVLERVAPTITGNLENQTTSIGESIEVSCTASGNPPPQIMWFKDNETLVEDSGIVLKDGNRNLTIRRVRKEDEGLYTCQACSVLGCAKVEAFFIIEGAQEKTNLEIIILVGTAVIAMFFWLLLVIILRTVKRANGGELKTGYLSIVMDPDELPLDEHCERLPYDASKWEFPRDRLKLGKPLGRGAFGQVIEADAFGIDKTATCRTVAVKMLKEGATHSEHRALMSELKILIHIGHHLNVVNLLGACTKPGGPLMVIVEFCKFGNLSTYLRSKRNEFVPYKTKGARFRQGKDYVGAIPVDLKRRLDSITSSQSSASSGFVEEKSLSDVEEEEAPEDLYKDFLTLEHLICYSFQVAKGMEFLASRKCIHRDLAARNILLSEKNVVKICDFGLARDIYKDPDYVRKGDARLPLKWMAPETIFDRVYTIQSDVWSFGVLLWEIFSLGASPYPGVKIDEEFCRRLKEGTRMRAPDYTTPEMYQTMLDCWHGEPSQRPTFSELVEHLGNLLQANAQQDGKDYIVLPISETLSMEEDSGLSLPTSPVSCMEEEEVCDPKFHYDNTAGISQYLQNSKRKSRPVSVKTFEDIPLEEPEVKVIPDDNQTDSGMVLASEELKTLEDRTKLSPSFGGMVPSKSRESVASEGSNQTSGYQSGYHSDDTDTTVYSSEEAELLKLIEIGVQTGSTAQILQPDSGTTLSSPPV
Chain of Aurora A (O14965 whole entry): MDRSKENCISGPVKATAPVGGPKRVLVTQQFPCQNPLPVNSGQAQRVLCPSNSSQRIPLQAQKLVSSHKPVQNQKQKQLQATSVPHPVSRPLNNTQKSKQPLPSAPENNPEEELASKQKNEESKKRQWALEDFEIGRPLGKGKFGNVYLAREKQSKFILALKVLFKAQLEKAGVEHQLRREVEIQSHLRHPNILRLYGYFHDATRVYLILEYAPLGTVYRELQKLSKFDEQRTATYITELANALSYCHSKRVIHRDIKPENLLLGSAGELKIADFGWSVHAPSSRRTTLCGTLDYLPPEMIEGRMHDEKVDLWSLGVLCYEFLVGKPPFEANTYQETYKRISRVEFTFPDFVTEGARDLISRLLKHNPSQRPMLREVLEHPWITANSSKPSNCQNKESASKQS

As for `CNCCO/N=C1/C(=C2/C(=O)Nc3ccc(Br)cc32)Nc2ccccc21` [5IN-1NH1s], the IC50 at FLT3 (D835Y) is under 0.5 nM; at FLT3 [2], 1.39 nM; at GSK3β it was 1.18 nM; at AKT1, 327 nM; in experiment [3], 169 nM; in experiment [4], 52.7 nM. Further, the IC50 turned out to be 217 nM on Aurora A, 245 nM on KDR/vEGFR2, 169 nM at JAK2 and 44.7 nM in [5]. Moreover, the “selectivity for FLT3 and mutated FLT3 kinases within class III receptor tyrosine kinase family” value in the experiment with FLT3 [1] is recorded as “selectively inhibits”.
